Results as given in patent publication US6500842B1, “8-hydroxy-7-substituted quinolines as anti-viral agents” (Pharmacia & Upjohn Company, priority 1996, dated 2002).
Like-named read-outs stand apart in the source and are kept apart here.

Experiments:
[1] = biological target: T1, CMV polymerase (Human cytomegalovirus, UniProt P08546); experiment: modified version of the HCMV polymerase assay (100% DMSO dilution, DTT, different enzyme lot); type: biochemical; details: for IC50: read-out: IC50
T1 construct: made in house; host or cells: recombinant baculovirus-infected SF-9 cells
T1 sequence (P08546 whole entry): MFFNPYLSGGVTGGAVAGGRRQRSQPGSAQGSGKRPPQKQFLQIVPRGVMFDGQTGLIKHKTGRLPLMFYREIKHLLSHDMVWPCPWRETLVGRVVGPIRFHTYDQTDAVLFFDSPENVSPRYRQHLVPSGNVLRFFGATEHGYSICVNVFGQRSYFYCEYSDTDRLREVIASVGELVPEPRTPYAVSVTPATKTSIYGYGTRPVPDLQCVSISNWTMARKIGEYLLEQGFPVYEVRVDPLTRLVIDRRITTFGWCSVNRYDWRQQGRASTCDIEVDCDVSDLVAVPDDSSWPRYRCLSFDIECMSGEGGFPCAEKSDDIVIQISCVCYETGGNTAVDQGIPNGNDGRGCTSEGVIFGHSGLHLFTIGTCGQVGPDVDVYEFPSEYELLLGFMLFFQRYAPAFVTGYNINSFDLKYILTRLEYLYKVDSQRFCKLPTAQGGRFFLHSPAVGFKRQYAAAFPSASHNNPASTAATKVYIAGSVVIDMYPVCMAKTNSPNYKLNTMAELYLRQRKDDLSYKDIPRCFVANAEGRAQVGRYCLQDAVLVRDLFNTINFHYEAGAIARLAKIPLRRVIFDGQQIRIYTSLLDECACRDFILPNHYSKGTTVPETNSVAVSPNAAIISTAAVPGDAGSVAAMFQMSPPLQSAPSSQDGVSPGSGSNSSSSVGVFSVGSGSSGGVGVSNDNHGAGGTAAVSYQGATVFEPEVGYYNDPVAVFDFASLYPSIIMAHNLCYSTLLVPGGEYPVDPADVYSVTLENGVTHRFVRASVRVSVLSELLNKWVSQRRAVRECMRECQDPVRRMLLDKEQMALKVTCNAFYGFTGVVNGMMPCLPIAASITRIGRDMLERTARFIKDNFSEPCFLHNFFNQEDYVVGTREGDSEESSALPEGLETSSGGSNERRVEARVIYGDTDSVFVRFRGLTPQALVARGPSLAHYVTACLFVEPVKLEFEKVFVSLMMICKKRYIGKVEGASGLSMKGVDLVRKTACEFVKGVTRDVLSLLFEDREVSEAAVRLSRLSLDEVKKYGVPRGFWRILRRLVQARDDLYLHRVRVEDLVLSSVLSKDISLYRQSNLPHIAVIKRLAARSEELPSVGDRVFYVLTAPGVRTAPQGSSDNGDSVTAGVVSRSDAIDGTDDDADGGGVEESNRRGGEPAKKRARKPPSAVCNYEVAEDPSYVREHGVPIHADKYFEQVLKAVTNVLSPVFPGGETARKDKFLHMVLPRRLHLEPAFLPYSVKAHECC
Experimental: The HCMV polymerase assay is performed using a scintillation proximity assay (SPA) as described in several references, such as N. D. Cook, et al., Pharmaceutical Manufacturing International, pages 49-53 (1992); K. Takeuchi, Laboratory Practice, September issue (1992); U.S. Pat. No. 4,568,649 (1986); which are incorporated by reference herein. Reactions are performed in 96-well plates. The assay is conducted in 100 μl volume with 5.4 mM HEPES (pH 7.5), 11.7 mM KCl, 4.5 mM MgCl2, 0.36 mg/ml BSA, and 90 nM ^3H-dTTP. Assays are run with and without CHAPS, (3-[(3-Cholamidopropyl)-dimethylammonio]-1-propane-sulfonate) at a final concentration of 2 mM. HCMV is diluted in enzyme dilution buffer containing 50% glycerol, 250 mM NaCl, 10 mM HEPES (pH 7.5), 100 pg/ml BSA, and 0.01% sodium azide. The HCMV polymerase, which is expressed in recombinant baculovirus-infected SF-9 cells and purified according to literature procedures, is added at 10% (or 10 μl) of the final reaction volume, i.e., 100 μl. Compounds are diluted in 50% DMSO and 10 μl are added to each well. Control wells contain an equivalent concentration of DMSO. Unless noted otherwise, reactions are initiated via the addition of 6 nM biotinylated poly(dA)-oligo(dT) template/primer to reaction mixtures containing the enzyme, substrate, and compounds of interest. Plates are incubated in a 25° C. of 37° C. H2O bath and terminated via the addition of 40 μl/reaction of 0.5 M EDTA (pH 8) per well. Reactions are terminated within the time-frame during which substrate incorporation is linear and varied depending upon the enzyme and conditions used, i.e., 30 min. for HCMV polymerase. Ten μl of streptavidin-SPA beads (20 mg/ml in PBS/10% glycerol) are added following termination of the reaction. Plates are incubated 10 min. at 37° C., then equilibrated to room temperature, and counted on a Packard Topcount. Linear regressions are performed and IC50's are calculated using computer software. Results of the testing of compounds of the present invention in this assay are shown in Tables 1, 2, 5, 9, 10, 11, 13 (except for the last compound which was tested under modified conditions) and 14 below.
A modified version of the above HCMV polymerase assay is performed as described above, but with the following changes: Compounds are diluted in 100% DMSO until final dilution into assay buffer. In the previous assay, compounds are diluted in 50% DMSO. 4.5 mM dithiotherotol (DTT) is added to the polymerase buffer.

[2] = tested on: HCMV; experiment: CMV antiviral assay, cell culture based ELISA in human foreskin fibroblast cells; design: species or system human cytomegalovirus (HCMV)
Experimental: Compounds are tested for direct antiviral activity against HCMV using a cell culture based assay. An ELISA (enzyme linked immunosorbant assay) format is used as described in W. A. Tatarowicz, N. S. Lurain and K. D. Thompson, J. Virol. Meth., 35:207-215 (1991). Human foreskin fibroblast cells are infected with HCMV at a multiplicity of 0.025 plaque forming units per microtiter plate well for a period of 90 minutes. The virus inocula is removed and a suspension of test compound prepared in tissue culture media is added for a period of 4 days. The growth media is aspirated and replaced with 95% ethanol to allow fixation of virus infected cultures. The ethanol is removed and the wells are washed twice with saline. A solution of 2% dry fat milk, 1% bovine sera albumin prepared in saline is added to wells to allow for non-specific binding of protein material to plastic surfaces for 1 hr. Murine monoclonal antibody prepared in saline directed against the late (65 KD) matrix protein of HCMV is added to test wells for 1 hr. The wells are washed twice and antibody, conjugated with the enzyme horse radish peroxidase, with specificity against murine IgG is added to test wells for 1 hr. Test wells are washed three times with saline. A solution of o-phenylene diamine, a substrate for horse radish peroxidase is added for 15 minutes at which time enzymatic conversion occurs indicating reactivity of the enzyme with its substrate. This conversion is evident as a color reaction which was spectrophoretically monitored at 490 nm. The intensity of the color indirectly reflects the presence of antibody directed against the viral 65 KD matrix antigen. The presence of the viral matrix antigen refects the amount of HCMV replication. Thus, test wells, in which little viral replication has occurred, would have little or no antibody binding and are present with low levels of color. Non-infected wells serve as the assay background control.

[3] = Human betaherpesvirus 5, Fibroblast, read-out: CMV Antiviral Assay IC50 (AV), Table 12

| melting point [°C] | inhibition at 6.25 µM ([1]; Concentration 6.25 uM, Table 3) [%] | inhibition at 12.5 µM ([1]; Concentration 12.5 uM, Table 3) [%] | inhibition at 25 µM ([1]; Concentration 25 uM, Table 3) [%] | inhibition at 50 µM ([1]; Concentration 50 uM, Table 3) [%] | inhibition at 100 µM ([1]; Concentration 100 uM, Table 3) [%] | IC50 ([1]; Table 3) [µM] | SMILES | inhibition at 6.25 µM ([1]; Concentration 6.25 μM, Table 6) [%] | inhibition at 25 µM ([1]; Concentration 25 μM, Table 6) [%] | inhibition at 50 µM ([1]; Concentration 50 μM, Table 6) [%] | inhibition at 100 µM ([1]; Concentration 100 μM, Table 6) [%] | inhibition at 200 µM ([1]; Concentration 200 μM, Table 6) [%] | other results |
| --- | --- | --- | --- | --- | --- | --- | --- | --- | --- | --- | --- | --- | --- |
| 269 to 272 |  |  |  |  |  |  | Cc1ccc2c(Cl)cc(S(=O)(=O)NCCc3ccc(NS(=O)(=O)c4ccccc4)cc3)c(O)c2n1 [Example 66, 5-Chloro-8-hydroxy-2-methyl-N-[2-[4-[(phenylsulfonyl)-amino]phenyl]ethyl]-7-quinolinesulfonamide] | 41 | 57 | 64 | 86 | 89 | % Inhibition ([1]; Concentration 6.25 μM, Table 6, 6.25 µM): 30%; % Inhibition ([1]; Concentration 25 μM, Table 6, 25 µM): 77%; % Inhibition ([1]; Concentration 50 μM, Table 6, 50 µM): 71%; % Inhibition ([1]; Concentration 100 μM, Table 6, 100 µM): 91%; % Inhibition ([1]; Concentration 200 μM, Table 6, 200 µM): 88% |
| 84 to 88 | 28 | 43 | 41 | 79 | 71 | 21.6 | Cc1ccc2c(Cl)cc(S(=O)(=O)N[C@H](C)c3ccccc3)c(O)c2n1 [Example 39, (R)-5-Chloro-8-hydroxy-2-methyl-N-(1-phenylethyl)-7-quinolinesulfonamide] |  |  |  |  |  | inhibition at 3.13 µM ([1]; Concentration 3.13 uM, Table 3): 16%; inhibition at 200 µM ([1]; Concentration 200 uM, Table 3): 90% |
|  |  |  |  |  |  |  | Cc1ccc2c(Cl)cc(S(=O)(=O)NCCCN3CCOCC3)c(O)c2n1 [drawing 326] |  |  |  |  |  | IC50 [2, 3]: 2.5 µM; IC50 ([2]; read-out: CMV Antiviral Assay IC50 (AV), Table 12): 3.6 µM |
|  |  |  |  |  |  |  | O=C(Nc1nc2ccc(Cl)cc2s1)c1ccc2cccnc2c1O [drawing 325] |  |  |  |  |  | IC50 [2, 3]: 25.5 µM |
| 131 to 134 | 21 | 57 | 63 | 54 | 97 | 17.2 | Cc1ccc2c(Cl)cc(S(=O)(=O)NCCCc3ccccc3)c(O)c2n1 [Example 34, 5-Chloro-8-hydroxy-2-methyl-N-(3-phenylpropyl)-7-quinoline-sulfonamide] |  |  |  |  |  |  |
| 83 to 87 | 36 | 47 | 53 | 80 | 94 | 13.7 | Cc1ccc2c(Cl)cc(S(=O)(=O)N[C@@H](C)c3ccccc3)c(O)c2n1 [Example 40, (S)-5-Chloro-8-hydroxy-2-methyl-N-(1-phenylethyl)-7-quinolinesulfonamide] |  |  |  |  |  | inhibition at 3.13 µM ([1]; Concentration 3.13 uM, Table 3): 22% |
| 194 to 196 | 3 | 12 | 21 | 50 | 55 | 72.3 | Cc1ccc2c(Cl)cc(S(=O)(=O)NCCCn3ccnc3)c(O)c2n1 [Example 37, 5-Chloro-8-hydroxy-N-[3-(1H-imidazol-1-yl)propyl]-2-methyl-7-quinolinesulfonamide] |  |  |  |  |  |  |

| SMILES | melting point [°C] | inhibition at 6.25 µM ([1]; Concentration 6.25 uM, Table 3) [%] | inhibition at 12.5 µM ([1]; Concentration 12.5 uM, Table 3) [%] | inhibition at 25 µM ([1]; Concentration 25 uM, Table 3) [%] | inhibition at 50 µM ([1]; Concentration 50 uM, Table 3) [%] | inhibition at 100 µM ([1]; Concentration 100 uM, Table 3) [%] | IC50 ([1]; Table 3) [µM] | inhibition at 6.25 µM ([1]; Concentration 6.25 μM, Table 6) [%] | inhibition at 25 µM ([1]; Concentration 25 μM, Table 6) [%] | inhibition at 50 µM ([1]; Concentration 50 μM, Table 6) [%] | inhibition at 100 µM ([1]; Concentration 100 μM, Table 6) [%] | inhibition at 200 µM ([1]; Concentration 200 μM, Table 6) [%] | other results |
| --- | --- | --- | --- | --- | --- | --- | --- | --- | --- | --- | --- | --- | --- |
| Cc1ccc2c(Cl)cc(S(=O)(=O)NCc3ccccn3)c(O)c2n1 [Example 59, 5-Chloro-8-hydroxy-2-methyl-N-(2-pyridinylmethyl)-7-quinolinesulfonamide] | 185 to 186 |  |  |  |  |  |  | -6 | 0 | 14 | 31 | 43 | inhibition at 3.13 µM ([1]; Concentration 3.13 μM, Table 6): -7%; inhibition at 12.5 µM ([1]; Concentration 12.5 μM, Table 6): -3%; IC50 ([1]; Table 6): > 200 µM |
| Cc1ccc2c(Cl)cc(S(=O)(=O)NCCCCc3ccccc3)c(O)c2n1 [Example 61, 5-Chloro-8-hydroxy-2-methyl-N-(4-phenylbutyl)-7-quinoline-sulfonamide] | 84 to 86 |  |  |  |  |  |  | 15 | 30 | 30 | 38 | 51 | inhibition at 3.13 µM ([1]; Concentration 3.13 μM, Table 6): 13%; inhibition at 12.5 µM ([1]; Concentration 12.5 μM, Table 6): 23%; IC50 ([1]; Table 6): > 200 µM |
